Several values for one entry are separate records, joined by “and”; a condition that tells them apart may be missing. Equal values may be shown once. Read-outs that look alike come from different tables or passages of the source.
What was measured:
[1] = test system: A549 lung carcinoma cells; assay: LDH cytotoxicity assay, A549; assay type: cell-based, human; conditions: Homo sapiens, LDH test, read-out: Cytotoxic activity expressed as IC50
Method: (§1) The cytotoxic activity was tested on human cancer and normal cell lines, grouped in several panels: skin (malignant melanoma HTB-140, malignant melanoma A375, melanoma WM793, and normal keratinocytes HaCaT), prostate (prostate carcinoma DU-145, prostate carcinoma PC3, and prostate epithelial cells PNT2), thyroid (thyroid carcinoma FTC133, thyroid carcinoma, undifferentiated 8505C), gastrointestinal panel (hepatocellular carcinoma HepG2, colon adenocarcinoma Caco-2, and colon adenocarcinoma HT29), and single line of lung carcinoma A549. Cells were grown at standard conditions (37 °C, 5% CO2, relative humidity) and culture media (DMEM/F12 for PNT2, WM793, HT29, A549; DMEM Low Glucose for DU-145; DMEM High Glucose for A375, HaCaT, A549; MEM with NEAA for Caco-2), supplemented with 10% fetal bovine serum (FBS) and 1% antibiotic solution (10,000 U penicillin and 10 mg streptomycin/mL). All cell lines, cell culture media, and supplements were from Merck (Seelze, Germany).
(§2) Before the experiment, cells were seeded onto 96-well plates for 24 h, at a density of 1.5 × 10^4 cells/ well. Then the tested compounds (5–100 μg/mL) were added and incubated for 24 and 48 h. Cell viability was measured with the lactate dehydrogenase (LDH) assay by Clontech (Clontech, Mountain View, CA, USA), as described previously. The absorbance was measured at 490 nm using a Biotek Synergy microplate reader (BioTek Instruments Inc., Winooski, VT, USA). Cell viability was expressed as a percentage of dead cells. Each experiment was conducted in triplicate. Doxorubicin was used as a reference cytostatic.
(§3) The results were expressed as mean (±SD). Data were analyzed using Statistica v.13.3 (StatSoft, Tulsa, OK, USA). The IC50 values were calculated using OriginPro 2020b (64-bit) 9.7.5.184 (Academic) (OriginLab Corporation, Northampton, MA, USA). One-way analysis of variance (ANOVA) and the post-hoc Tukey multiple comparison test were used. The statistical significance was defined at the probability level of p < 0.05. Principal component analysis (PCA) and hierarchical cluster analysis (HCA) were performed using Statistica v.13.3 (StatSoft, Tulsa, OK, USA). Prior to PCA, the Bartlett’s sphericity test was conducted, and the Kaiser-Meyer-Olkin Measure of Sampling Adequacy index (KMO) was examined. In the simple model, for each compound tested (1–4), the cell lines were the cases, and the different concentrations of the compound were the parameters. This was followed by a PCA model in which the cell lines were the parameters, and the compounds (at different concentrations) were the cases. All PCA models were based on a correlation matrix. Hierarchical cluster analysis (CA) based on standardized data was performed using Ward’s method and Euclidean distance. The results were grouped based on Mojena’s rule.

[2] = test system: HepG2 hepatocellular carcinoma cells; assay: LDH cytotoxicity assay, HepG2; assay type: cell-based; conditions: Homo sapiens, LDH test, read-out: Cytotoxic activity expressed as IC50
Method: as §1, §2, §3

[3] = test system: HTB-140 malignant melanoma cells; assay: LDH cytotoxicity assay, HTB-140; assay type: cell-based; conditions: Homo sapiens, LDH test, read-out: Cytotoxic activity expressed as IC50
Method: as §1, §2, §3

[4] = LDH cytotoxicity assay, PNT2; assay type: cell-based, human; conditions: human, PNT2 prostate epithelial cells (normal), PNT2 normal cells, LDH test, read-out: Cytotoxic activity expressed as IC50; for IC50 at 24 h: 24 h incubation; for IC50 at 48 h: 48 h incubation
Method: as §1, §2, §3

[5] = test system: human cancer and normal cell lines; assay: Cytotoxicity screening across the whole cell line panel; assay type: cell-based; conditions: all cell lines tested, 5–100 μg/mL, 24 and 48 h
Method: The cytotoxic activity was tested on human cancer and normal cell lines, grouped in several panels: skin (malignant melanoma HTB-140, malignant melanoma A375, melanoma WM793, and normal keratinocytes HaCaT), prostate (prostate carcinoma DU-145, prostate carcinoma PC3, and prostate epithelial cells PNT2), thyroid (thyroid carcinoma FTC133, thyroid carcinoma, undifferentiated 8505C), gastrointestinal panel (hepatocellular carcinoma HepG2, colon adenocarcinoma Caco-2, and colon adenocarcinoma HT29), and single line of lung carcinoma A549. […]
as §2, with “Then the tested compounds (5–100 μg/mL) were added and incubated for 24 and 48 h.” left out, “Each experiment was conducted in triplicate. Doxorubicin was used as a reference cytostatic.” left out
The results were expressed as mean (±SD). Data were analyzed using Statistica v.13.3 (StatSoft, Tulsa, OK, USA). The IC50 values were calculated using OriginPro 2020b (64-bit) 9.7.5.184 (Academic) (OriginLab Corporation, Northampton, MA, USA). […]

[6] = test system: HT29 colon adenocarcinoma cells; assay: LDH cytotoxicity assay, HT29; assay type: cell-based; conditions: Homo sapiens, HT-29, LDH test, read-out: Cytotoxic activity expressed as IC50
Method: as §1, §2, §3

[7] = test system: DU-145 metastatic prostate carcinoma cells; assay: LDH cytotoxicity assay, DU-145; assay type: cell-based, human; conditions: Homo sapiens, LDH test, read-out: Cytotoxic activity expressed as IC50
Method: as §1, §2, §3

[8] = test system: A375 malignant melanoma cells; assay: LDH cytotoxicity assay, A375; assay type: cell-based; conditions: Homo sapiens, A-375, LDH test, read-out: Cytotoxic activity expressed as IC50
Method: as §1, §2, §3

[9] = test system: Caco-2 colon adenocarcinoma cells; assay: LDH cytotoxicity assay, Caco-2; assay type: cell-based; conditions: Homo sapiens, LDH test, read-out: Cytotoxic activity expressed as IC50
Method: as §1, §2, §3

[10] = test system: PC3 metastatic prostate carcinoma cells; assay: LDH cytotoxicity assay, PC3; assay type: cell-based; conditions: Homo sapiens, LDH test, read-out: Cytotoxic activity expressed as IC50
Method: as §1, §2, §3

[11] = LDH cytotoxicity assay, HaCaT; assay type: cell-based, human; conditions: human, HaCaT normal keratinocytes, HaCaT normal cells, LDH test, read-out: Cytotoxic activity expressed as IC50; for IC50 at 24 h: 24 h incubation; for IC50 at 48 h: 48 h incubation
Method: as §1, §2, §3

[12] = test system: FTC133 follicular thyroid carcinoma cells; assay: LDH cytotoxicity assay, FTC133; assay type: cell-based; conditions: Homo sapiens, FTC-133, LDH test, read-out: Cytotoxic activity expressed as IC50
Method: as §1, §2, §3

[13] = test system: WM793 primary melanoma cells; assay: LDH cytotoxicity assay, WM793; assay type: cell-based; conditions: Homo sapiens, LDH test, read-out: Cytotoxic activity expressed as IC50
Method: as §1, §2, §3

[14] = test system: 8505C undifferentiated thyroid carcinoma cells; assay: LDH cytotoxicity assay, 8505C; assay type: cell-based; conditions: Homo sapiens, LDH test, read-out: Cytotoxic activity expressed as IC50
Method: as §1, §2, §3

[15] = A549, 24 h, A549, 24 h incubation
[16] = A549, 48 h, A549, 48 h incubation

SMILES | IC50 [1, 15] | IC50 [1, 16] | IC50 ([2]; HepG2, 24 h incubation) | IC50 ([2]; HepG2, 48 h incubation) | IC50 ([3]; HTB-140, 24 h incubation) | IC50 ([3]; HTB-140, 48 h incubation) | IC50 at 24 h [4] | IC50 at 48 h [4] | IC50 ([6]; HT29, 24 h incubation) | IC50 ([6]; HT29, 48 h incubation) | IC50 ([7]; DU-145, 24 h incubation) | IC50 ([7]; DU-145, 48 h incubation) | IC50 ([8]; A375, 24 h incubation) | IC50 ([8]; A375, 48 h incubation) | IC50 ([9]; Caco-2, 24 h incubation) | IC50 ([9]; Caco-2, 48 h incubation) | IC50 ([10]; PC3, 24 h incubation) | IC50 ([10]; PC3, 48 h incubation) | IC50 at 24 h [11] | IC50 at 48 h [11] | other results
CC1(C)CC[C@]2(C(=O)O)CC[C@]3(C)C(=CC[C@@H]4[C@@]5(C)CC[C@H](O[C@@H]6O[C@H](CO)[C@@H](O)[C@H](O[C@@H]7O[C@H](CO)[C@@H](O)[C@H](O)[C@H]7O)[C@H]6O)[C@@](C)(CO)[C@@H]5CC[C@]43C)[C@@H]2C1 [Compound 1] | 18.7 µM and 14.9 µg/mL | 14.8 µM and 11.8 µg/mL | 16.6 µM and 13.2 µg/mL | 13.6 µM and 10.8 µg/mL | 33 µM and 26.2 µg/mL | 22.8 µM and 18.2 µg/mL | 51.1 µM and 40.7 µg/mL | 42.8 µM and 34.1 µg/mL | 35.7 µM and 28.4 µg/mL | 31.4 µM and 25 µg/mL | 20.7 µM and 16.5 µg/mL | 14.7 µM and 11.7 µg/mL | 22.6 µM and 18 µg/mL | 16 µM and 12.7 µg/mL | 27.1 µM and 21.6 µg/mL | 24.2 µM and 19.3 µg/mL | 73.6 µM and 58.6 µg/mL | 44.2 µM and 35.2 µg/mL | 50.8 µM and 40.4 µg/mL | 33.9 µM and 27 µg/mL | Overall cytotoxic activity across the panel, in words [5]: exhibited activity against all cell lines tested; IC50 ([12]; FTC133, 24 h incubation): 30.8 µM and 24.5 µg/mL; IC50 ([12]; FTC133, 48 h incubation): 17.1 µM and 13.6 µg/mL; IC50 ([13]; WM793, 24 h incubation): 34.6 µM and 27.6 µg/mL; IC50 ([13]; WM793, 48 h incubation): 21.6 µM and 17.2 µg/mL; IC50 ([14]; 24 h incubation): 45.1 µM and 35.9 µg/mL; IC50 ([14]; 48 h incubation): 32.4 µM and 25.8 µg/mL
CC1(C)CC[C@]2(C(=O)O[C@@H]3O[C@H](CO)[C@@H](O)[C@H](O)[C@H]3O)CC[C@]3(C)C(=CC[C@@H]4[C@@]5(C)CC[C@H](O)[C@@](C)(CO)[C@@H]5CC[C@]43C)[C@@H]2C1 [Compound 3, 28-O-β-D-glucopyranosyl hederagenin ester] | 150 µM and 95.3 µg/mL | 73.2 µM and 46.5 µg/mL | 127 µM and 80.5 µg/mL | 107 µM and 68 µg/mL | > 100 µg/mL | 155 µM and 98.2 µg/mL | 84.8 µM and 53.8 µg/mL | 59.5 µM and 37.8 µg/mL | 69.2 µM and 44 µg/mL | 60 µM and 38.1 µg/mL | 56.8 µM and 36.1 µg/mL | 42.6 µM and 27 µg/mL | 73.5 µM and 46.7 µg/mL | 58 µM and 36.8 µg/mL | 42.6 µM and 27 µg/mL | 38 µM and 24.2 µg/mL | > 100 µg/mL | 118 µM and 74.8 µg/mL | 91.5 µM and 58.1 µg/mL | 68.2 µM and 43.3 µg/mL | IC50 ([12]; FTC133, 24 h incubation): > 100 µg/mL; IC50 ([12]; FTC133, 48 h incubation): > 100 µg/mL; IC50 ([13]; WM793, 24 h incubation): > 100 µg/mL; IC50 ([13]; WM793, 48 h incubation): > 100 µg/mL; IC50 ([14]; 24 h incubation): > 100 µg/mL; IC50 ([14]; 48 h incubation): > 100 µg/mL

Reference: publication PMC12348107, “Saponins from Oxybasis rubra (L.) S.Fuentes, Uotila & Borsh: Comparative Assessment of Cytotoxic Potential Against a Wide Panel of Cancer Cell Lines” (Molecules, 2025)
